According to ChEMBL document CHEMBL6153020, “Identification of Isoliensinine as a Ferroptosis Suppressor with Iron-Chelating Activity” (J Nat Prod, 2025):
Activity calls are given as the source filed them.

What was measured:
[1] = tested on: HT-1080; experiment: Anti-ferroptosis activity against IKE-induced ferroptosis in human HT-1080 cells assessed as inhibition of lipid peroxidation level at 5 uM by BODIPY 581/591 C11 dye based flow cytometry analysis; format: functional, cell-based
[2] = tested on: HT-1080; experiment: Anti-ferroptosis activity against RSL3-induced ferroptosis in human HT-1080 cells assessed as increase in cell viability at 50 uM incubated for 24 hrs by cell counting kit 8 method; format: functional, cell-based
[3] = tested on: HT-1080; experiment: Anti-ferroptosis activity against FeCl3/8HQ-induced ferroptosis in human HT-1080 cells assessed as increase in cell viability at 1 to 50 uM incubated for 24 hrs by cell counting kit 8 method; format: functional, cell-based; conditions: dose 1-50 µM
[4] = tested on: HT-1080; experiment: Anti-ferroptosis activity against RSL3-induced ferroptosis in human HT-1080 cells assessed as increase in cell viability at 10 uM incubated overnight in the presence of ML385 by cell counting kit 8 method; format: functional, cell-based
[5] = tested on: HT-1080; experiment: Anti-ferroptosis activity against FINO2-induced ferroptosis in human HT-1080 cells assessed as decrease in cell death at 5 uM incubated for 24 hrs by SYTOX Green staining based light microscopy analysis; format: functional
[6] = tested on: HT-1080; experiment: Anti-ferroptosis activity against IKE-induced ferroptosis in human HT-1080 cells assessed as increase in cell viability at 1 to 50 uM incubated for 24 hrs by cell counting kit 8 method; format: functional, cell-based; conditions: dose 1-50 µM
[7] = tested on: HT-1080; experiment: Anti-ferroptosis activity against IKE-induced ferroptosis in human HT-1080 cells assessed as effect on GSH/GSSG ratio at 5 uM; format: functional, cell-based
[8] = Antioxidant activity assessed as ABTS radical scavenging activity at 5 uM by ABTS method; format: functional
[9] = tested on: HT-1080; experiment: Anti-ferroptosis activity against RSL3-induced ferroptosis in human HT-1080 cells assessed as restoration of lipid peroxidation level by BODIPY 581/591 C11 dye based flow cytometry analysis; format: functional, cell-based
[10] = tested on: HT-1080; experiment: Anti-ferroptosis activity against RSL3-induced ferroptosis in human HT-1080 cells assessed as reduction in ROS level by DCFH-DA dye based analysis; format: functional, cell-based
[11] = tested on: HT-1080; experiment: Anti-ferroptosis activity against RSL3-induced ferroptosis in human HT-1080 cells assessed as upregulation of PTGS2 mRNA expression by qPCR analysis; format: functional, cell-based
[12] = tested on: HT-1080; experiment: Anti-ferroptosis activity against RSL3-induced ferroptosis in human HT-1080 cells assessed as reduction in GPX4 level at 5 uM by Western blot analysis; format: functional, cell-based
[13] = tested on: HT-1080; experiment: Anti-ferroptosis activity against RSL3-induced ferroptosis in human HT-1080 cells assessed as reduction in MDA level; format: functional, cell-based
[14] = tested on: HT-1080; experiment: Anti-ferroptosis activity against IKE-induced ferroptosis in human HT-1080 cells assessed as increase in cell viability at 10 uM incubated for 24 hrs by SYTOX Green staining based light microscopy analysis; format: functional
[15] = tested on: HT-1080; experiment: Anti-ferroptosis activity against IKE-induced ferroptosis in human HT-1080 cells assessed as effect on GSH level at 5 uM; format: functional, cell-based
[16] = tested on: HT-1080; experiment: Anti-ferroptosis activity against FINO2-induced ferroptosis in human HT-1080 cells assessed as increase in cell viability at 1 to 50 uM incubated for 24 hrs by cell counting kit 8 method; format: functional, cell-based; conditions: dose 1-50 µM
[17] = tested on: HT-1080; experiment: Anti-ferroptosis activity against RSL3-induced ferroptosis in human HT-1080 cells assessed as protection against cell death at 10 uM incubated for 24 hrs by SYTOX Green staining based light microscopy analysis; format: functional
[18] = tested on: HT-1080; experiment: Anti-ferroptosis activity against RSL3-induced ferroptosis in human HT-1080 cells assessed as increase in cell viability at 10 uM incubated for 24 hrs by CCK-8 assay; format: functional, cell-based
[19] = tested on: HT-1080; experiment: Anti-ferroptosis activity against RSL3-induced ferroptosis in human HT-1080 cells assessed as increase in cell viability at 5 uM incubated for 24 hrs by cell counting kit 8 method; format: functional, cell-based
[20] = tested on: HT-1080; experiment: Anti-ferroptosis activity against FINO2-induced ferroptosis in human HT-1080 cells assessed as increase in cell viability at 20 uM incubated overnight by cell counting kit 8 method; format: functional, cell-based
[21] = tested on: HT-1080; experiment: Anti-ferroptosis activity against FINO2-induced ferroptosis in human HT-1080 cells assessed as reduction in total iron level at 5 uM by live-cell fluorescent imaging; format: functional, cell-based
[22] = tested on: HT-1080; experiment: Anti-ferroptosis activity against FeSO4/8HQ-induced ferroptosis in human HT-1080 cells assessed as increase in cell viability at 1 to 10 uM incubated for 24 hrs by cell counting kit 8 method; format: functional, cell-based; conditions: dose 1-10 µM
[23] = tested on: HT-1080; experiment: Anti-ferroptosis activity against FINO2-induced ferroptosis in human HT-1080 cells assessed as reduction in Fe2+ oxidation level at 5 uM by colorimetric method; format: functional, cell-based
[24] = tested on: HT-1080; experiment: Anti-ferroptosis activity against FeCl3/8HQ-induced ferroptosis in human HT-1080 cells assessed as reduction in MDA level at 5 uM; format: functional, cell-based
[25] = tested on: HT-1080; experiment: Anti-ferroptosis activity against MnCl2-induced ferroptosis in human HT-1080 cells assessed as increase in cell viability at 5 uM incubated for 24 hrs by cell counting kit 8 method; format: functional, cell-based
[26] = tested on: HT-1080; experiment: Anti-ferroptosis activity against FeSO4/8HQ-induced ferroptosis in human HT-1080 cells assessed as reduction in MDA level at 5 uM; format: functional, cell-based
[27] = Toxicity in C57BL/6 mouse assessed as change in AST level in serum at 10 mg/kg, ip pretreated with iron sulfate for 8 hrs followed by compound administered for 30 min by automatic biochemical analyzer; format: organism-based; conditions: in vivo, 30 h
[28] = tested on: Mus musculus; experiment: Anti-ferroptotic activity against acute iron overload in male C57BL/6 mouse model assessed as reduction in […] mRNA expression level in liver at 10 mg/kg, ip pretreated with iron sulfate for 8 hrs followed by compound administered for 30 min by qPCR analysis; format: functional, organism-based
[29] = tested on: HT-1080; experiment: Anti-ferroptosis activity against FINO2-induced ferroptosis in human HT-1080 cells assessed as upregulation of PTGS2 mRNA level at 5 uM by qPCR analysis; format: functional, cell-based
[30] = tested on: HT-1080; experiment: Anti-ferroptosis activity against FeCl3/8HQ-induced ferroptosis in human HT-1080 cells assessed as reduction in total iron level at 5 uM by live-cell fluorescent imaging; format: functional, cell-based
[31] = Toxicity in C57BL/6 mouse assessed as change in LDH level in serum at 10 mg/kg, ip pretreated with iron sulfate for 8 hrs followed by compound administered for 30 min by automatic biochemical analyzer; format: organism-based; conditions: in vivo, 30 h
[32] = tested on: HT-1080; experiment: Anti-ferroptosis activity against FINO2-induced ferroptosis in human HT-1080 cells assessed as reduction in MDA level at 5 uM; format: functional, cell-based
[33] = tested on: HT-1080; experiment: Anti-ferroptosis activity against FeSO4/8HQ-induced ferroptosis in human HT-1080 cells assessed as reduction in total iron level at 5 uM by live-cell fluorescent imaging; format: functional, cell-based
[34] = tested on: HT-1080; experiment: Anti-ferroptosis activity against FeCl3/8HQ-induced ferroptosis in human HT-1080 cells assessed as increase in cell viability at 5 uM incubated for 24 hrs by cell counting kit 8 method; format: functional, cell-based
[35] = tested on: Mus musculus; experiment: Anti-ferroptotic activity against acute iron overload in male C57BL/6 mouse model assessed as reduction in MDA level in liver at 10 mg/kg, ip pretreated with iron sulfate for 8 hrs followed by compound administered for 30 min; format: functional, organism-based
[36] = tested on: Mus musculus; experiment: Protection against acute iron overload in male C57BL/6 mouse model assessed as reduction in spleen iron content at 10 mg/kg, ip pretreated with iron sulfate for 8 hrs followed by compound administered for 30 min by Perls Prussian blue staining; format: functional, organism-based
[37] = tested on: HT-1080; experiment: Anti-ferroptosis activity against FeSO4/8HQ-induced ferroptosis in human HT-1080 cells assessed as reduction in Fe2+ level at 5 uM by FerroOrange staining based live-cell fluorescent imaging; format: functional
[38] = tested on: HT-1080; experiment: Anti-ferroptosis activity against ZnCl2-induced ferroptosis in human HT-1080 cells assessed as increase in cell viability at 5 uM incubated for 24 hrs by cell counting kit 8 method; format: functional, cell-based
[39] = tested on: Mus musculus; experiment: Protection against acute iron overload in male C57BL/6 mouse model assessed as reduction in hepatic FTH level at 10 mg/kg, ip pretreated with iron sulfate for 8 hrs followed by compound administered for 30 min by Western blot analysis; format: functional, organism-based
[40] = Toxicity in C57BL/6 mouse assessed as change in ALT level in serum at 10 mg/kg, ip pretreated with iron sulfate for 8 hrs followed by compound administered for 30 min by automatic biochemical analyzer; format: organism-based; conditions: in vivo, 30 h
[41] = tested on: Mus musculus; experiment: Protection against acute iron overload in male C57BL/6 mouse model assessed as reduction in liver iron content at 10 mg/kg, ip pretreated with iron sulfate for 8 hrs followed by compound administered for 30 min by Perls Prussian blue staining; format: functional, organism-based
[42] = tested on: Mus musculus; experiment: Protection against acute iron overload in male C57BL/6 mouse model assessed as reduction in hepatic FTL level at 10 mg/kg, ip pretreated with iron sulfate for 8 hrs followed by compound administered for 30 min by Western blot analysis; format: functional, organism-based
[43] = Toxicity in C57BL/6 mouse assessed as change in CK level in serum at 10 mg/kg, ip pretreated with iron sulfate for 8 hrs followed by compound administered for 30 min by automatic biochemical analyzer; format: organism-based; conditions: in vivo, 30 h
[44] = tested on: Mus musculus; experiment: Protection against male acute iron overload C57BL/6 mouse model assessed as reduction in hepatic iron content at 10 mg/kg, ip pretreated with iron sulfate for 8 hrs followed by compound administered for 30 min; format: functional, organism-based

Measured: Activity

C/C=C/c1ccc(OC(C)=O)c(OC)c1
active: [1] | [2] | [4] | [6] | [7] | [9] | [10] | [11] | [13] | [14] | [15] | [17]
Active; Strong Protection: [18]
inactive: [3] | [5] | [8] | [12] | [16]

C=CC(C)(C)c1cc(/C=C/C(=O)c2ccc(O)cc2)c(OC)cc1O
active: [1] | [4] | [6] | [7] | [9] | [10] | [11] | [13] | [14] | [15] | [17] | [19]
inactive: [3] | [5] | [8] | [12] | [16]
Active; Strong Protection: [18]

COc1cc2c(cc1OC)[C@@H](Cc1ccc(O)c(Oc3cc4c(cc3OC)CCN(C)[C@@H]4Cc3ccc(O)cc3)c1)N(C)CC2
inactive: [20]

COc1ccc(C[C@@H]2c3cc(Oc4cc(C[C@H]5c6cc(OC)c(OC)cc6CCN5C)ccc4O)c(OC)cc3CCN2C)cc1
inactive: [20]

COc1ccc(C[C@@H]2c3cc(Oc4cc(C[C@@H]5c6cc(O)c(OC)cc6CCN5C)ccc4O)c(OC)cc3CCN2C)cc1 [ISOLIENSININE]
inactive: [25] | [34] | [8] | [12] | [38]
Non-toxic: [27] | [31] | [40] | [43]
Active; Strong Protection: [18]
not listed: [2] | [20]
active: all other assays above
